Legend:
b-Raf (V600E) = biological target: T1, b-Raf (V600E) (Homo sapiens, UniProt P15056, V600E); assay: In vitro Raf activity determination (Alpha Screen, biotinylated kinase-dead MEK1 substrate), B-Raf; type: biochemical; conditions: b-Raf (V600E) approximately 4 pM; ATP 10 μM; pre-incubation 60 minutes; reaction 3 hours at room temperature
T1 construct: made in house
Outline: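 Activated b-Raf(V600E) (~4 pM) pre-incubated 60 min with compound and biotinylated kinase-dead (K97R) MEK1 (~10 nM), then reacted 3 h at room temperature with 10 μM ATP in 50 mM Tris pH 7.5, 15 mM MgCl2, 0.01% BSA, 1 mM DTT. Phospho-MEK detected by AlphaScreen; IC50 by non-linear regression.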

C-RAF = biological target: T2, C-RAF (Homo sapiens, UniProt P04049, Y340E/Y341E); assay: In vitro Raf activity determination (Alpha Screen, biotinylated kinase-dead MEK1 substrate), C-Raf; type: biochemical; conditions: c-Raf approximately 4 nM; ATP 1 μM; pre-incubation 60 minutes; reaction 1 hour at room temperature
T2 construct: His tag (implied by nickel chromatography) (cleaved yes); StrepII tag (cleaved yes); made in house; host or cells: Sf9 insect cells (baculovirus), CRAF and h14-3-3 zeta co-expressed; MEK1 substrate from E. coli
Outline: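 Full-length C-Raf carrying Y340E/Y341E, co-expressed with 14-3-3ζ in Sf9 cells, at approximately 4 nM, with approximately 10 nM biotinylated kinase-dead MEK1 (K97R) and 1 μM ATP, pH 7.5. Compound preincubated 60 min, reaction 1 hour at room temperature. Phospho-MEK read by AlphaScreen; IC50 by non-linear regression.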

T1 sequence (P15056 whole entry V600E): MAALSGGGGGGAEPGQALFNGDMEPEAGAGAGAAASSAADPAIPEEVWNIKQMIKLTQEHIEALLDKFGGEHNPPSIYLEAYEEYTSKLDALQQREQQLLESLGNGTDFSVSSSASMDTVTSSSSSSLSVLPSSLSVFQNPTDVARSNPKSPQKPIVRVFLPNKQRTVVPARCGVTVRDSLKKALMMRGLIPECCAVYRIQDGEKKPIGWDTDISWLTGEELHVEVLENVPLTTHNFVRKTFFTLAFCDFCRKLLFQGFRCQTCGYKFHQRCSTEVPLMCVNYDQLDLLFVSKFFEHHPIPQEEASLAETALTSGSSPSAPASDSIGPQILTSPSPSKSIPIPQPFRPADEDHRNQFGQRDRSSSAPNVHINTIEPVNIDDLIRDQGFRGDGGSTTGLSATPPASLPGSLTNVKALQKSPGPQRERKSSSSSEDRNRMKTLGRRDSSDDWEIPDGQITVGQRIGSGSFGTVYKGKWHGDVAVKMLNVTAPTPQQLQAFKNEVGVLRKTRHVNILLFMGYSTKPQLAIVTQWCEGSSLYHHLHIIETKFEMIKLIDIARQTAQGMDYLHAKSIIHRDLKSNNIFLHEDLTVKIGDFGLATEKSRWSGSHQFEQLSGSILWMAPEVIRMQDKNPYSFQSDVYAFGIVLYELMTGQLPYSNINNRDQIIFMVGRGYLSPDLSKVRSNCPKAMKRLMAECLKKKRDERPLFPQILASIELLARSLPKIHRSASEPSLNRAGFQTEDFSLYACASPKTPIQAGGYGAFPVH
T2 sequence (P04049 whole entry Y340E/Y341E): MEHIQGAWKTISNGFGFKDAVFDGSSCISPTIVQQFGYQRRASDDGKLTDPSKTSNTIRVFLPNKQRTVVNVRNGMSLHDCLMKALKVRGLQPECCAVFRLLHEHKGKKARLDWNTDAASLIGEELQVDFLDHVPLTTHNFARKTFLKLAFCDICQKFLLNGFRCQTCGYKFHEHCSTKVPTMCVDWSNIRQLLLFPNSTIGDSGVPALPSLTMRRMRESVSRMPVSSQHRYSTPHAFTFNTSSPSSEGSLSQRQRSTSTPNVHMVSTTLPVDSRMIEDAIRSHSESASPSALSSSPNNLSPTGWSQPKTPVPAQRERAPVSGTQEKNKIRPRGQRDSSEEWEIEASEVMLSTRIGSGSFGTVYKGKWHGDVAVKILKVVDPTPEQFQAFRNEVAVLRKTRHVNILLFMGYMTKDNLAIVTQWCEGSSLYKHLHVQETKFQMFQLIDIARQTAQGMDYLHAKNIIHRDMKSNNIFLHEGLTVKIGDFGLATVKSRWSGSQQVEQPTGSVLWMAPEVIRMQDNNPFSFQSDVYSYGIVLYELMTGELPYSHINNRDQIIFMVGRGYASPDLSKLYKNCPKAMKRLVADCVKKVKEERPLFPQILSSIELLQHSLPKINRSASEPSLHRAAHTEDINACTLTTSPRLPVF
T2 sequence (P63104 whole entry partner): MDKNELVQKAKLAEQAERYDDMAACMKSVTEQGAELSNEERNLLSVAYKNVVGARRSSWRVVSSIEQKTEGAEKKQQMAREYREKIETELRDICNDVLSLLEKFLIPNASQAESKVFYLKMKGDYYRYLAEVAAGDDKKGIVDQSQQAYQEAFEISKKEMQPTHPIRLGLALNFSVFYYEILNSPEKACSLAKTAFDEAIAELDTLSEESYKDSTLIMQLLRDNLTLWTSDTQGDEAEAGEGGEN

IC50 (b-Raf (V600E)) [nM]	IC50 (C-RAF) [nM]	SMILES
1.98	0.476	Cc1ccc(NC(=O)c2ccnc(C(C)(C)C#N)c2)cc1-c1cnc(C2CCOCC2)c(C#N)c1 [Example 137, N-(3-(5-cyano-6-(tetrahydro-2H-pyran-4-yl)pyridin-3-yl)-4-methylphenyl)-2-(2-cyanopropan-2-yl)isonicotinamide]
4.14	0.511	Cc1ccc(NC(=O)c2ccnc(S(C)(=O)=O)c2)cc1-c1cnc(C2CCOCC2)c(C#N)c1 [Example 138, N-(3-(5-cyano-6-(tetrahydro-2H-pyran-4-yl)pyridin-3-yl)-4-methylphenyl)-2-(methylsulfonyl) isonicotinamide]
2.4	0.377	Cc1ccc(NC(=O)c2cccc(S(C)(=O)=O)c2)cc1-c1cnc(C2CCOCC2)c(C#N)c1 [Example 139, N-(3-(5-cyano-6-(tetrahydro-2H-pyran-4-yl)pyridin-3-yl)-4-methylphenyl)-3-(methylsulfonyl) benzamide]
3.61	0.792	Cc1ccc(NC(=O)c2ccnc(C(C)(C)O)c2)cc1-c1cnc(C2CCOCC2)c(C#N)c1 [Example 140, N-(3-(5-cyano-6-(tetrahydro-2H-pyran-4-yl)pyridin-3-yl)-4-methylphenyl)-2-(2-hydroxypropan-2-yl)isonicotinamide]
56.2	5.13	Cc1ncc(NC(=O)c2cccc(C(F)(F)F)n2)cc1-c1cnc(C2CCOCC2)c(C#N)c1 [Example 141, N-(5′-cyano-2-methyl-6′-(tetrahydro-2H-pyran-4-yl)-[3,3′-bipyridin]-5-yl)-6-(trifluoromethyl) picolinamide]
2.79	0.344	Cc1ncc(NC(=O)c2cnnc(C(F)(F)F)c2)cc1-c1cnc(N2CCOCC2)c(C#N)c1 [Example 142, N-(5′-cyano-2-methyl-6′-morpholino-[3,3′-bipyridin]-5-yl)-6-(trifluoromethyl) pyridazine-4-carboxamide]
5.63	0.842	Cc1ccc(NC(=O)c2cnnc(C(F)(F)F)c2)cc1-c1cnc(N2CCNCC2)c(C#N)c1 [Example 143, N-(3-(5-cyano-6-(piperazin-1-yl)pyridin-3-yl)-4-methylphenyl)-6-(trifluoromethyl) pyridazine-4-carboxamide]
76	12.6	Cc1ncc(NC(=O)c2cnnc(C(F)(F)F)c2)cc1-c1cnc(C2CCOCC2)c(C#N)c1 [Example 144, N-(5′-cyano-2-methyl-6′-(tetrahydro-2H-pyran-4-yl)-[3,3′-bipyridin]-5-yl)-6-(trifluoromethyl) pyridazine-4-carboxamide]
0.56	0.148	Cc1ccc(NC(=O)c2ccnc(C3(C#N)CC3)c2)cc1-c1cnc(N2CCNCC2)c(C#N)c1 [Example 145, N-(3-(5-cyano-6-(piperazin-1-yl)pyridin-3-yl)-4-methylphenyl)-2-(1-cyanocyclopropyl) isonicotinamide]
1.33	0.262	Cc1ncc(NC(=O)c2ccnc(C3(C#N)CC3)c2)cc1-c1cnc(N2CCOCC2)c(C#N)c1 [Example 146, N-(5′-cyano-2-methyl-6′-morpholino-[3,3′-bipyridin]-5-yl)-2-(1-cyanocyclopropyl) isonicotinamide]
0.503	0.116	Cc1ccc(NC(=O)c2ccnc(C3(C#N)CC3)c2)cc1-c1cnc(N2CCOCC2)c(C#N)c1 [Example 147, N-(3-(5-cyano-6-morpholinopyridin-3-yl)-4-methylphenyl)-2-(1-cyanocyclopropyl) isonicotinamide]
3.34	0.731	Cc1ncc(NC(=O)c2ccnc(C3(C#N)CC3)c2)cc1-c1cnc(C2CCOCC2)c(C#N)c1 [Example 148, N-(5'-cyano-2-methyl-6'-(tetrahydro-2H-pyran-4-yl)-[3,3'-bipyridin]-5-yl)-2-(1-cyanocyclopropyl) isonicotinamide]
15100	2370	Cc1ccc(NC(=O)c2ccccc2)cc1-c1cncc(C#N)c1 [Example 149, N-(3-(5-cyanopyridin-3-yl)-4-methylphenyl) benzamide]

The remaining lines, values behind:

SMILES	IC50 (b-Raf (V600E)) [nM]	IC50 (C-RAF) [nM]
Cc1ccc(NC(=O)c2ccnc(C(C)(C)C#N)c2)cc1-c1cnc(-n2ccc(=O)cc2)c(C#N)c1 [Example 120, N-(3-(3′-cyano-4-oxo-4H-[1,2′-bipyridin]-5′-yl)-4-methylphenyl)-2-(2-cyanopropan-2-yl)isonicotinamide]	34.6	6.84
Cc1ccc(NC(=O)c2ccnc(C(F)(F)F)c2)cc1-c1cnc(C(C)C)c(C#N)c1 [Example 121, N-(3-(5-cyano-6-isopropylpyridin-3-yl)-4-methylphenyl)-2-(trifluoromethyl) isonicotinamide]	0.871	0.307
Cc1ccc(NC(=O)c2ccnc(C(C)(C)C#N)c2)cc1-c1cnc(C(C)C)c(C#N)c1 [Example 122, N-(3-(5-cyano-6-isopropylpyridin-3-yl)-4-methylphenyl)-2-(2-cyanopropan-2-yl)isonicotinamide]	2.8	0.994
Cc1ccc(NC(=O)c2cccc(C(F)(F)F)c2)cc1-c1cnc(-c2cnn(C)c2)c(C#N)c1 [Example 123, N-(3-(5-cyano-6-(1-methyl-1H-pyrazol-4-yl)pyridin-3-yl)-4-methylphenyl)-3-(trifluoromethyl) benzamide]	1.18	0.15
Cc1ccc(NC(=O)c2ccnc(C(F)(F)F)c2)cc1-c1cnc(-c2cnn(C)c2)c(C#N)c1 [Example 124, N-(3-(5-cyano-6-(1-methyl-1H-pyrazol-4-yl)pyridin-3-yl)-4-methylphenyl)-2-(trifluoromethyl) isonicotinamide]	0.427	0.0746
Cc1ccc(NC(=O)c2ccnc(C(C)(C)C#N)c2)cc1-c1cnc(-c2cnn(C)c2)c(C#N)c1 [Example 125, N-(3-(5-cyano-6-(1-methyl-1H-pyrazol-4-yl)pyridin-3-yl)-4-methylphenyl)-2-(2-cyanopropan-2-yl)isonicotinamide]	1.46	0.254
Cc1ccc(NC(=O)c2ccnc(C(F)F)c2)cc1-c1cnc(-c2cnn(C)c2)c(C#N)c1 [Example 126, N-(3-(5-cyano-6-(1-methyl-1H-pyrazol-4-yl)pyridin-3-yl)-4-methylphenyl)-2-(difluoromethyl) isonicotinamide]	0.304	0.0423
Cc1ncc(NC(=O)c2ccnc(C(F)(F)F)c2)cc1-c1cnc(C2CCOCC2)c(C#N)c1 [Example 127, N-(5′-cyano-2-methyl-6′-(tetrahydro-2H-pyran-4-yl)-[3,3′-bipyridin]-5-yl)-2-(trifluoromethyl) isonicotinamide]	3.11	0.464
Cc1ncc(NC(=O)c2cccc(C(F)(F)F)c2)cc1-c1cnc(C2CCOCC2)c(C#N)c1 [Example 128]	1.34	0.202
Cc1ncc(NC(=O)c2ccnc(C(F)F)c2)cc1-c1cnc(C2CCOCC2)c(C#N)c1 [Example 129, N-(5′-cyano-2-methyl-6′-(tetrahydro-2H-pyran-4-yl)-[3,3′-bipyridin]-5-yl)-2-(difluoromethyl) isonicotinamide]	23.8	2.55
Cc1ncc(NC(=O)c2ccnc(C(C)C)c2)cc1-c1cnc(C2CCOCC2)c(C#N)c1 [Example 130, N-(5′-cyano-2-methyl-6′-(tetrahydro-2H-pyran-4-yl)-[3,3′-bipyridin]-5-yl)-2-isopropyl-isonicotinamide]	4.83	0.879
Cc1ncc(NC(=O)c2ccnc(C3CC3)c2)cc1-c1cnc(C2CCOCC2)c(C#N)c1 [Example 131, N-(5′-cyano-2-methyl-6′-(tetrahydro-2H-pyran-4-yl)-[3,3′-bipyridin]-5-yl)-2-cyclopropyl-isonicotinamide]	4.26	0.745
Cc1ncc(NC(=O)c2cccc(C(F)F)c2)cc1-c1cnc(N2CCOCC2)c(C#N)c1 [Example 132, N-(5′-cyano-2-methyl-6′-morpholino-[3,3′-bipyridin]-5-yl)-3-(difluoromethyl) benzamide]	0.542	0.117
Cc1ncc(NC(=O)c2ccnc(C(C)C)c2)cc1-c1cnc(N2CCOCC2)c(C#N)c1 [Example 133, N-(5′-cyano-2-methyl-6′-morpholino-[3,3′-bipyridin]-5-yl)-2-isopropyl-isonicotinamide]	2.05	0.33
Cc1ncc(NC(=O)c2ccnc(C3CC3)c2)cc1-c1cnc(N2CCOCC2)c(C#N)c1 [Example 134, N-(5′-cyano-2-methyl-6′-morpholino-[3,3′-bipyridin]-5-yl)-2-cyclopropyl-isonicotinamide]	1.46	0.236
CCn1cc(C(=O)Nc2cnc(C)c(-c3cnc(N4CCOCC4)c(C#N)c3)c2)cc(C(F)(F)F)c1=O [Example 135, N-(5′-cyano-2-methyl-6′-morpholino-[3,3′-bipyridin]-5-yl)-1-ethyl-6-oxo-5-(trifluoromethyl)-1,6-dihydropyridine-3-carboxamide]	4.79	0.969
Cc1ncc(NC(=O)c2ccnc(C(F)F)c2)cc1-c1cnc(N2CCOCC2)c(C#N)c1 [Example 136, N-(5′-cyano-2-methyl-6′-morpholino-[3,3′-bipyridin]-5-yl)-2-(difluoromethyl) isonicotinamide]	1.16	0.153
